“Also recorded” adds a separate entry of the source.
Key:
[1] = tested on: receptors in the heart vasculature; test: Binding of homing peptides to receptors in heart vasculature versus other organs; parameters: species or system mammal; conditions: for binding to BDNF receptor(s) in the vasculature of older hearts: usually trkB, more commonly truncated trkB; for binding to receptors on other organs (than heart, or heart and brain): organ selectivity
PDGF-B = test: Intramyocardial injection of TNFα: PDGF-B immunostaining in hearts; assay type: in vivo, F344 rats; conditions: 100 ng intramyocardial, 24 h
Procedure: (§1) FIG. 5. Aging-associated alterations in TNFα cardioprotection. (A) Representative immunostaining for PDGF-B in rat hearts injected with TNFα or PBS vehicle 24 h prior to sacrifice. (B) Quantification of PDGF-B density in the injected hearts (n=3, each group). (C) Representative cardiac histology after coronary occlusion: Mason's trichrome staining for myocardial necrosis (14 day post-coronary occlusion) in 4- and 24-month old rat hears treated with PBS (4- and 24-month old, n=4 and 10, respectively) and TNFα (4-month old, n=4); and (D) tunnel staining for apoptosis (DAB) with hematoxylin counter stain (2 day post-coronary occlusion) in 24-month old hearts treated with TNFα (n=10; 80% mortality vs. PBS 0%; p<0.05). (E) Quantification of myocardial necrosis in rat hearts 14 day post-coronary occlusion.
(§2) To examine the age-dependent effects of TNFα PDGF-B expression and protection from myocardial necrosis, sets of 4- and 24-month old F344 rats received intramyocardial injections of growth factor.

myocardial infarction = test: Intramyocardial TNFα followed by coronary occlusion: myocardial necrosis, apoptosis, mortality; assay type: in vivo, F344 rats
Procedure: as §1, §2

[2] = tested on: cardiac microvascular endothelial cells (CMECs); test: PDGF-B induction (RT-PCR) after TNFα treatment of cultured CMECs; assay type: cell-based, F344 rats; conditions: 4-month old rat CMECs, TNFα 30 ng/ml, 3 hr
Text: FIG. 4. Aging-associated alterations in cardiac microvascular TNFα receptor pathways. (A) Representative immunostaining for TNF receptor 1 and 2 in the subepicardium and subendocardium of 3- and 18-month old murine hearts. (B) TNF receptor 1 and 2 densities in the subendocardium of 3- and 18-month old murine hearts (n=3, each). (C) RT-PCR for PDGF-B induction after TNFα treatment of 4- and 24-month old rat CMECs.
The functional significance of the changes in TNF receptor in the aging cardiac microvasculature was examined in vitro. Cardiac microvascular endothelial cells (CMECS) of 4 and 24-month old F344 rats were isolated and cultured. Briefly, the hearts were removed and minced in endothelial cell medium (DMEM containing 20% FBS, 1% endothelial cell growth factor, 1% endothelial cell growth supplement, 1% BME, 10^−4% heparin and 1% penicillin [10,000 I.U./ml]/streptomycin [10,000 μg/ml]), and digested with medium containing 0.2% collagenase and 0.005% Dnase, and 5% FBS for 45 minutes with subsequent endothelial cells isolation by PECAM-mediated magnetic particle collection (Dynabeads). The resultant CMECs (Dil-LDL uptake>95%) were cultured for 2 passages and seeded into 12-well culture dish (10^5 cells/well) and grown to confluence. Medium was changed to serum free-DMEM for 1 hr and then to medium containing 2% FBS+TNFα (30 ng/ml) for 3 hr.

ARRGQAV
binding to BDNF receptor(s) in the vasculature of older hearts [1]: bind | binding to receptors on other organs (than heart, or heart and brain) [1]: do not bind significantly

GRRFIRV
binding to BDNF receptor(s) in the vasculature of older hearts [1]: bind | binding to receptors on other organs (than heart, or heart and brain) [1]: do not bind significantly

QAQGQLV
binding to receptors on other organs (than heart, or heart and brain) [1]: does not bind significantly | binding capacity to TNF receptor(s) in vasculature of young versus older hearts ([1]; young vs older hearts): more binding capacity

TNFα: tumor necrosis factor α, growth factor injected intramyocardially or added to CMECs (NPQAEGQLQV)
PDGF-B in young hearts in vivo (PDGF-B; 4-month old rats): specifically induced increase | PDGF-B in aging hearts in vivo (PDGF-B; 24-month old rats): minimal effect | extent of myocardial infarction in young hearts (myocardial infarction; 4-month old rats, 14 day post-coronary occlusion): markedly reduced | apoptosis in older hearts (myocardial infarction; 24-month old rats, anterior left ventricular wall, 2 day post-coronary occlusion): extensive apoptosis; also recorded: induced apoptosis | mortality in older rats (myocardial infarction; 24-month old rats, within 72 h of coronary occlusion): 80% | PDGF-B expression in CMECs from young hearts [2]: induced

From patent publication US7910694B2, “Homing peptides to receptors of heart vasculature” (Cornell Research Foundation, Inc., priority 2002, dated 2011)
